Sander's compilation of Henry's law constants (doi:10.1021/je3010535)

Assay: Henry solubility constant Hcp at 298.15 K (mol/(m3 Pa))
Settings: reference: Hiatt (2013)

| Compound | Henry solubility constant Hcp |
| --- | --- |
| C=CCl [chloroethene] | 0.00039 |
| [2H]c1c([2H])c([2H])c2c(C([2H])([2H])[2H])c([2H])c([2H])c([2H])c2c1[2H] [1-methylnaphthalene-d10] | 0.046 |
| Clc1cccc(Cl)c1Cl [1,2,3-trichlorobenzene] | 0.015 |
| CC1CCCCC1 [methylcyclohexane] | 0.00032 |
| ClCC(Br)CBr (centres undefined) [1,2-dibromo-3-chloropropane] | 0.097 |
| [2H]C([2H])([2H])C(=O)C([2H])([2H])CCC [2-hexanone-1,1,1,3,3-d5] | 0.17 |
| [2H]c1c([2H])c([2H])c2c([2H])c([2H])c([2H])c([2H])c2c1[2H] [naphthalene-d8] | 0.035 |
| ClC(Cl)C(Cl)Cl [1,1,2,2-tetrachloroethane] | 0.033 |
| ClC/C=C\CCl [(Z)-1,4-dichloro-2-butene] | 0.03 |
| CC(C)c1ccccc1 [(2-propyl)-benzene] | 0.0014 |
| Cc1cc(C(C)(C)C)cc(C(C)(C)C)c1 [3,5-di-tert-butyltoluene] | 0.0037 |
| CC#N [ethanenitrile] | 0.6 |
| ClC(Cl)C(Cl)(Cl)Cl [pentachloroethane] | 0.0059 |
| c1ccc2ccccc2c1 [naphthalene] | 0.033 |
| [2H]c1c([2H])c([2H])c(C([2H])([2H])C([2H])([2H])[2H])c([2H])c1[2H] [ethylbenzene-d10] | 0.002 |
| Fc1ccccc1 [fluorobenzene] | 0.0016 |
| CC(Cl)CCl (centres undefined) [1,2-dichloropropane] | 0.0043 |
| Cc1ccc(C)c(C)c1 [1,2,4-trimethylbenzene] | 0.0032 |
| ClCCl [dichloromethane] | 0.004 |
| CC(=O)CC(C)C [4-methyl-2-pentanone] | 0.1 |
| ClCC(Cl)(Cl)Cl [1,1,1,2-tetrachloroethane] | 0.0048 |
| BrC(Br)Br [tribromomethane] | 0.022 |
| Cc1ccccc1C [1,2-dimethylbenzene] | 0.0032 |
| c1ccccc1 [benzene] | 0.0018 |
| COC(C)=O [methyl ethanoate] | 0.12 |

| Compound | Henry solubility constant Hcp |
| --- | --- |
| [2H]c1c([2H])c([2H])c(Cl)c([2H])c1[2H] [chlorobenzene-d5] | 0.0036 |
| CC(=O)c1ccccc1 [1-phenylethanone] | 0.97 |
| Cc1ccccc1 [methylbenzene] | 0.0021 |
| ClCc1ccccc1CCl [α,α-dichloro-o-xylene] | 0.1 |
| [2H]C([2H])([2H])C([2H])(Cl)C([2H])([2H])Cl (centres undefined) [1,2-dichloropropane-d6] | 0.0036 |
| CCO[13C](C)=O [ethyl ethanoate-1-13C] | 0.071 |
| C=CCCl [3-chloro-1-propene] | 0.0013 |
| ClC(Cl)=C(Cl)C(Cl)=C(Cl)Cl [hexachlorobutadiene] | 0.0023 |
| Cc1ccc(Cl)cc1 [1-chloro-4-methylbenzene] | 0.0041 |
| [2H]C([2H])(O)C([2H])([2H])Cl [2-chloroethanol-d4] | 5 |
| ClC(Cl)=C(Cl)Cl [tetrachloroethene] | 0.00099 |
| Brc1ccccc1 [bromobenzene] | 0.006 |
| [2H]c1c([2H])c(Cl)c(Cl)c(Cl)c1[2H] [1,2,3-trichlorobenzene-d3] | 0.015 |
| [2H]c1c([2H])c([2H])c(C([2H])([2H])[2H])c(C([2H])([2H])[2H])c1[2H] [1,2-dimethylbenzene-d10] | 0.003 |
| ClC=C(Cl)Cl [trichloroethene] | 0.0012 |
| CC(C)(C)c1ccccc1 [(1,1-dimethylethyl)-benzene] | 0.0016 |
| CCC(C)c1ccccc1 (centres undefined) [(1-methylpropyl)-benzene] | 0.0013 |
| C=Cc1ccccc1 [ethenylbenzene] | 0.0044 |
| Cc1ccc(C(C)C)cc1 [1-methyl-4-(1-methylethyl)-benzene] | 0.0018 |
| ClCCCCl [1,3-dichloropropane] | 0.013 |
| ClCc1ccccc1 [(chloromethyl)-benzene] | 0.02 |
| ClC(Cl)(Cl)Cl [tetrachloromethane] | 0.0005 |
| Cc1cc(C)cc(C)c1 [1,3,5-trimethylbenzene] | 0.0023 |
| [2H]c1c([2H])c([2H])c(C([2H])([2H])[2H])c([2H])c1[2H] [methylbenzene-d8] | 0.002 |
| ClC(Cl)Br [bromodichloromethane] | 0.0052 |

| Compound | Henry solubility constant Hcp |
| --- | --- |
| S=C=S [carbon disulfide] | 0.00057 |
| [2H]C([2H])(Cl)C([2H])(Cl)Cl [1,1,2-trichloroethane-d3] | 0.013 |
| ClCC(Cl)Cl [1,1,2-trichloroethane] | 0.014 |
| ClC(Br)Br [dibromochloromethane] | 0.011 |
| CCCc1ccccc1 [propylbenzene] | 0.0019 |
| [2H]c1c([2H])c([2H])c(C(C)=O)c([2H])c1[2H] [1-phenylethanone-d5] | 2.3 |
| Clc1ccccc1 [chlorobenzene] | 0.0037 |
| ClCBr [bromochloromethane] | 0.0066 |
| CC(C)(Cl)Cl [2,2-dichloropropane] | 0.00044 |
| Fc1ccc(Br)cc1 [1-bromo-4-fluorobenzene] | 0.0053 |
| [2H]C([2H])([2H])C1([2H])C([2H])([2H])C([2H])([2H])C([2H])([2H])C([2H])([2H])C1([2H])[2H] [methylcyclohexane-d14] | 0.00031 |
| Fc1cc(F)c(F)c(F)c1F [pentafluorobenzene] | 0.00075 |
| Fc1c(F)c(F)c(F)c(F)c1F [hexafluorobenzene] | 0.00055 |
| Clc1cccc(Cl)c1 [1,3-dichlorobenzene] | 0.0052 |
| [2H]c1c([2H])c([2H])c([N+](=O)[O-])c([2H])c1[2H] [nitrobenzene-d5] | 0.85 |
| CI [iodomethane] | 0.0018 |
| BrCBr [dibromomethane] | 0.012 |
| CCCCC(C)=O [2-hexanone] | 0.15 |
| CCOCC [diethyl ether] | 0.011 |
| Fc1c(F)c(F)c(-c2c(F)c(F)c(F)c(F)c2F)c(F)c1F [decafluorobiphenyl] | 0.0067 |
| CCCCC(C)CO (centres undefined) [2-methyl-1-hexanol] | 0.69 |
| [2H]C([2H])([2H])C([2H])([2H])OC([2H])([2H])C([2H])([2H])[2H] [diethyl ether-d10] | 0.013 |
| CC(Cl)(Cl)Cl [1,1,1-trichloroethane] | 0.00069 |
| CCc1ccccc1 [ethylbenzene] | 0.002 |
| Cc1cc(Br)cc(Br)c1 [3,5-dibromotoluene] | 0.017 |

| Compound | Henry solubility constant Hcp |
| --- | --- |
| Cc1ccc2ccccc2c1 [2-methylnaphthalene] | 0.035 |
| Clc1ccc(Cl)cc1 [1,4-dichlorobenzene] | 0.0058 |
| ClC/C=C/CCl [(E)-1,4-dichloro-2-butene] | 0.035 |
| C1CCCCC1 [cyclohexane] | 0.00032 |
| Cl/C=C/CCl [trans-1,3-dichloropropene] | 0.0058 |
| C=C(C)C(=O)OC [methyl methacrylate] | 0.043 |
| O=[N+]([O-])c1ccccc1 [nitrobenzene] | 0.64 |
| FC(F)(Cl)Cl [dichlorodifluoromethane] | 0.00013 |
| ClCC(Cl)CCl [1,2,3-trichloropropane] | 0.042 |
| [2H]C([2H])=C([2H])Cl [chloroethene-d3] | 0.00038 |
| C=C(Cl)Cl [1,1-dichloroethene] | 0.00041 |
| [2H]C([2H])(Cl)Cl [dichloromethane-d2] | 0.0038 |
| Cc1cccc2ccccc12 [1-methylnaphthalene] | 0.044 |
| CC(C)O [2-propanol] | 1.1 |
| CBr [bromomethane] | 0.0013 |
| CC=C(Cl)Cl [1,1-dichloropropene] | 0.00061 |
| CCCCc1ccccc1 [butylbenzene] | 0.002 |
| C=CC#N [2-propenenitrile] | 0.12 |
| [2H]c1c([2H])c([2H])c([2H])c([2H])c1[2H] [benzene-d6] | 0.0018 |
| CCCl [chloroethane] | 0.00085 |
| C[13C](C)=O [propanone-2-13C] | 0.31 |
| COCCO [2-methoxyethanol] | 4.4 |
| [2H]c1c([2H])c([2H])c(Br)c([2H])c1[2H] [bromobenzene-d5] | 0.0065 |
| Cl/C=C\CCl [cis-1,3-dichloropropene] | 0.0095 |
